Where two headings read alike, the source gives them in different places.
Tests used:
MCF7 cells = test: CellTiter-Glo Luminescent Cell Viability Assay on ER-positive breast cancer MCF-7 cells; type: cell-based, human; conditions: average ± standard deviation when tested more than 3 times, read-out: Inhibition of the viability of breast cancer cells, IC50
From the text: B: In Vitro CellTiter-Glo® Luminescent Cell Viability Assay on ER-Positive Breast Cancer MCF-7 Cells:
MCF7 cells are breast cancer cell lines that highly express ER-66, ER-46 and ER-36. (Relevance of breast cancer cell lines as models for breast tumours: an update. Marc Lacroix, Guy Leclercq, Breast Cancer Research and Treatment (2004) 83, 249-289; Wang et al., Proc. Natl. Acad. Sci. U.S.A. 103:9063-9068 (2006)). MCF7 cells were obtained from ATCC and maintained in Dulbecco's Modified Eagles Medium (DMEM) and 10% fetal calf serum at 37° C., under 5% CO2 atmosphere. The cells were seeded on 96-well plate at a density of 6×10^3 cells per well. MCF7 cells were treated with a test compound dissolved in DMSO at the concentrations of zero, 0.3 μM, 0.5 μM, 1 μM, 2 μM, 3 μM, 5 μM, 10 μM, 20 μM, 30 μM, 50 μM and 100 μM for 72 hours. Treated cells were examined by CellTiter-Glo® Luminescent Cell Viability Assay Kit (Promega), and luminescence values were recorded with Envision.

MDA-MB-231 cells = test: CellTiter-Glo Luminescent Cell Viability Assay on ER-negative breast cancer MDA-MB-231 cells; type: cell-based; conditions: average ± standard deviation when tested more than 3 times, read-out: Inhibition of the viability of breast cancer cells, IC50
Experimental: A: In Vitro CellTiter-Glo® Luminescent Cell Viability Assay on ER-Negative Breast Cancer MDA-MB-231 Cells:
MDA-MB-231 cells were maintained at 37° C., under 5% CO2 atmosphere in DMEM containing 10% fetal calf serum. The cells were seeded on 96-well plate at a density of 6×10^3 cells per well. MDA-MB-231 cells were treated with a test compound dissolved in DMSO at the concentrations of zero, 0.3 μM, 0.5 μM, 1 μM, 2 μM, 3 μM, 5 μM, 10 μM, 20 μM, 30 μM, 50 μM and 100 μM for 72 hours. Treated cells were examined by CellTiter-Glo® Luminescent Cell Viability Assay Kit (Promega), and luminescence values were recorded with Envision.

Compound	IC50 (MCF7 cells; 72 hours) [µM]	IC50 (MDA-MB-231 cells; 72 hours) [µM]	IC50 (MCF7 cells; Homo sapiens, MCF7, 72 h) [µM]	IC50 (MDA-MB-231 cells; Homo sapiens, MDA-MB-231, 72 h) [µM]
COc1c(C2CCOC2)oc2c(CC=C(C)C)c(O)c(CC=C(C)C)c(O)c2c1=O (stereo not shown) [Compound 38, 2-(terthydrofuran-3-yl)-5,7-dihydroxy-3-methoxy-6,8-di(3-methyl-2-buten-1-yl)-4H-benzopyran-4-one]	22.9	> 100	–	–
COc1c(-c2cccs2)oc2c(CC=C(C)C)c(O)c(CC=C(C)C)c(O)c2c1=O [Compound 39, 2-(thiophen-2-yl)-5,7-dihydroxy-3-methoxy-6,8-di(3-methyl-2-buten-1-yl)-4H-benzopyran-4-one]	–	–	65.8	> 100
COc1c(-c2ccsc2)oc2c(CC=C(C)C)c(O)c(CC=C(C)C)c(O)c2c1=O [Compound 40, 2-(thiophen-3-yl)-5,7-dihydroxy-3-methoxy-6,8-di(3-methyl-2-buten-1-yl)-4H-benzopyran-4-one]	–	–	23.5	24
COc1c(-c2ccco2)oc2c(CC=C(C)C)c(O)c(CC=C(C)C)c(O)c2c1=O [Compound 41, 2-(furan-2-yl)-5,7-dihydroxy-3-methoxy-6,8-di(3-methyl-2-buten-1-yl)-4H-benzopyran-4-one]	–	–	22.2	> 100
COc1c(-c2ccoc2)oc2c(CC=C(C)C)c(O)c(CC=C(C)C)c(O)c2c1=O [Compound 42, 2-(furan-3-yl)-5,7-dihydroxy-3-methoxy-6,8-di(3-methyl-2-buten-1-yl)-4H-benzopyran-4-one]	–	–	12.4	28.7
COc1c(-c2cscn2)oc2c(CC=C(C)C)c(O)c(CC=C(C)C)c(O)c2c1=O [Compound 43, 2-(thiazol-4-yl)-5,7-dihydroxy-3-methoxy-6,8-di(3-methyl-2-buten-1-yl)-4H-benzopyran-4-one]	–	–	25.7	> 100
COc1c(-c2cocn2)oc2c(CC=C(C)C)c(O)c(CC=C(C)C)c(O)c2c1=O [Compound 44, 2-(oxazol-4-yl)-5,7-dihydroxy-3-methoxy-6,8-di(3-methyl-2-buten-1-yl)-4H-benzopyran-4-one]	–	–	> 100	> 100
COc1c(-c2ccnn2C)oc2c(CC=C(C)C)c(O)c(CC=C(C)C)c(O)c2c1=O [Compound 45, 2-(1-methyl-1H-pyrazol-5-yl)-5,7-dihydroxy-3-methoxy-6,8-di(3-methyl-2-buten-1-yl)-4H-benzopyran-4-one]	–	> 100	31.1	–
COc1c(-c2cnn(C)c2)oc2c(CC=C(C)C)c(O)c(CC=C(C)C)c(O)c2c1=O [Compound 46, 2-(1-methyl-1H-pyrazol-4-yl)-5,7-dihydroxy-3-methoxy-6,8-di(3-methyl-2-buten-1-yl)-4H-benzopyran-4-one]	–	–	> 100	> 100
COc1c(-c2nccn2C)oc2c(CC=C(C)C)c(O)c(CC=C(C)C)c(O)c2c1=O [Compound 47, 2-(1-methyl-1H-imidazol-2-yl)-5,7-dihydroxy-3-methoxy-6,8-di(3-methyl-2-buten-1-yl)-4H-benzopyran-4-one]	–	–	> 100	43.5
COc1c(-c2ccnn2C)oc2c(CC=C(C)C)c(O)c(CC=C(C)C)c(O)c2c1=O [Compound 48, 2-(1-methyl-1H-pyrazol-5-yl)-5,7-dihydroxy-3-methoxy-6,8-di(3-methyl-2-buten-1-yl)-4H-benzopyran-4-one]	37.2	25	–	–
COc1c(-c2cc3ccccc3o2)oc2c(CC=C(C)C)c(O)c(CC=C(C)C)c(O)c2c1=O [Compound 50, 2-(benzofuran-2-yl)-5,7-dihydroxy-3-methoxy-6,8-di(3-methyl-2-buten-1-yl)-4H-benzopyran-4-one]	–	–	20.4	13.6
COc1c(-c2ccnc(F)c2)oc2c(CC=C(C)C)c(O)c(CC=C(C)C)c(O)c2c1=O [Compound 51, 2-(2-fluoropyridin-4-yl)-5,7-dihydroxy-3-methoxy-6,8-di(3-methyl-2-buten-1-yl)-4H-benzopyran-4-one]	–	–	> 100	> 100
COc1c(-c2ccc(Cl)nc2)oc2c(CC=C(C)C)c(O)c(CC=C(C)C)c(O)c2c1=O [Compound 52, 2-(6-chloropyridin-3-yl)-5,7-dihydroxy-3-methoxy-6,8-di(3-methyl-2-buten-1-yl)-4H-benzopyran-4-one]	–	–	7.04 ± 1.43	8.34 ± 1.63
COc1c(-c2ccc(Cl)cn2)oc2c(CC=C(C)C)c(O)c(CC=C(C)C)c(O)c2c1=O [Compound 53, 2-(5-chloropyridin-2-yl)-5,7-dihydroxy-3-methoxy-6,8-di(3-3-methyl-2-buten-1-yl)-4H-benzopyran-4-one]	19.5 ± 1.02	17 ± 4.97	–	–
COc1c(-c2ccc(F)nc2)oc2c(CC=C(C)C)c(O)c(CC=C(C)C)c(O)c2c1=O [Compound 54, 2-(6-fluoropyridin-3-yl)-5,7-dihydroxy-3-methoxy-6,8-di(3-3-methyl-2-buten-1-yl)-4H-benzopyran-4-one]	7.06 ± 3.16	10.3 ± 0.38	–	–
COc1c(-c2ccnc(Cl)c2)oc2c(CC=C(C)C)c(O)c(CC=C(C)C)c(O)c2c1=O [Compound 55, 2-(2-chloropyridin-4-yl)-5,7-dihydroxy-3-methoxy-6,8-di(3-methyl-2-buten-1-yl)-4H-benzopyran-4-one]	–	–	4.17 ± 2.45	5.51 ± 0.02
COc1c(-c2ccc(C(=O)O)cc2)oc2c(CC=C(C)C)c(O)c(CC=C(C)C)c(O)c2c1=O [Compound 56, 4-[5,7-dihydroxy-3-methoxy-6,8-di(3-methyl-2-butenyl)-4-oxo-4H-benzopyran-2-yl]benzoic acid]	–	–	29.2	5.96
COc1c(-c2ccc(OC(F)(F)F)cc2)oc2c(CC=C(C)C)c(O)c(CC=C(C)C)c(O)c2c1=O [Compound 58, 2-(4-trifluoromethoxyphenyl)-5,7-dihydroxy-3-methoxy-6,8-di(3-methyl-2-buten-1-yl)-4H-benzopyran-4-one]	–	–	> 100	3.63
COc1c(-c2ccc(N(C)C)cc2)oc2c(CC=C(C)C)c(O)c(CC=C(C)C)c(O)c2c1=O [Compound 59, 2-(4-dimethylaminophenyl)-5,7-dihydroxy-3-methoxy-6,8-di(3-methyl-2-buten-1-yl)-4H-benzopyran-4-one]	–	–	5.12	> 100
COc1c(-c2ccc(S(C)(=O)=O)cc2)oc2c(CC=C(C)C)c(O)c(CC=C(C)C)c(O)c2c1=O [Compound 64, 2-(4-methanesulfonylphenyl)5,7-dihydroxy-3-methoxy-6,8-di(3-methyl-2-buten-1-yl)-4H-benzopyran-4-one]	–	–	40.6	2.45
COc1c(-c2ccc(C(C)=O)cc2)oc2c(CC=C(C)C)c(O)c(CC=C(C)C)c(O)c2c1=O [Compound 65, 2-(4-acetylphenyl)-5,7-dihydroxy-3-methoxy-6,8-di(3-methyl-2-buten-1-yl)-4H-benzopyran-4-one]	–	–	10.2	> 100
COc1c(-c2ccc(C(C)O)cc2)oc2c(CC=C(C)C)c(O)c(CC=C(C)C)c(O)c2c1=O (stereo not shown) [Compound 67]	4.66	3.27	–	–
COc1c(-c2cncs2)oc2c(CC=C(C)C)c(O)c(CC=C(C)C)c(O)c2c1=O [Compound 68, 2-(thiazol-5-yl)-5,7-dihydroxy-3-methoxy-6,8-di(3-methyl-2-buten-1-yl)-4H-benzopyran-4-one]	8.89	23.8	–	–
COc1c(CC=C(C)C)c(O)c2c(=O)c(OC)c(-c3ccc(F)c(F)c3)oc2c1CC=C(C)C [Compound 81A, 2-(3,4-difluorophenyl)-5-hydroxy-3,7-dimethoxy-6,8-di(3-methyl-2-buten-1-yl)-4H-benzopyran-4-one]	–	–	> 100	> 100
COc1c(CC=C(C)C)cc2c(=O)c(OC)c(-c3ccc(F)c(F)c3)oc2c1CC=C(C)C [Compound 81B, 2-(3,4-difluorophenyl)-3,7-dimethoxy-6,8-di(3-methyl-2-buten-1-yl)-4H-benzopyran-4-one]	–	–	> 100	> 100
COc1c(CC=C(C)C)c(O)c2c(=O)c(OC)c(-c3ccc(Cl)c(F)c3)oc2c1CC=C(C)C [Compound 82A, 2-(3-fluoro-4-chlorophenyl)-5-hydroxy-3,7-dimethoxy-6,8-di(3-methyl-2-buten-1-yl)-4H-benzopyran-4-one]	–	–	> 100	> 100
COc1c(CC=C(C)C)c(OC)c2c(=O)c(OC)c(-c3ccc(Cl)c(F)c3)oc2c1CC=C(C)C [Compound 82B, 2-(3-fluoro-4-chlorophenyl)-3,5,7-trimethoxy-6,8-di(3-methyl-2-buten-1-yl)-4H-benzopyran-4-one]	–	–	> 100	26.3
CC(C)=CCc1c(O)c(CC=C(C)C)c2oc(-c3ccc(F)c(F)c3)cc(=O)c2c1O [Compound 85, 2-(3,4-difluorophenyl)-5,7-dihydroxy-6,8-di(3-methyl-2-buten-1-yl)-4H-benzopyran-4-one]	–	–	> 100	> 100
